Measured values from patent US12115209B2, “ROMO1-derived antimicrobial peptides including lysine substitution and variants thereof” (KOREA UNIVERSITY RESEARCH AND BUSINESS FOUNDATION, priority 2019, dated 2024).
No end group written: not given here.

Experiments:
[1] = test system: Staphylococcus aureus (ATCC 29213); test: Minimum bactericidal concentration (MBC) assay; type: cell-based; conditions: Tables 11-21, no unit printed
Outline: (§1)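 P. aeruginosa ATCC 27853 and S. aureus ATCC 29213 grown in 3% TSB at 37° C, 200 rpm, then diluted in SP buffer (10 mM sodium phosphate, 1% TSB). Peptides (0–300 μg/ml) exposed to 1×10^5 CFU/ml for 1 h at 37° C; aliquots plated on TS agar, 18 h. MBC = lowest concentration giving no colonies.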

[2] = test system: Pseudomonas aeruginosa (ATCC 27853); test: Minimum bactericidal concentration (MBC) assay; type: cell-based; conditions: Tables 11-21, no unit printed
Outline: as §1

CRPA = test: Minimum bactericidal concentration (MBC) assay; type: cell-based; conditions: Tables 11-21, no unit printed
[3] = test system: Staphylococcus aureus, Pseudomonas aeruginosa, methicillin-resistant Staphylococcus aureus and multidrug-resistant Pseudomonas aeruginosa; test: Bacteria remaining in the blood of infected mice after intravenous injection of the drug; type: in vivo, mice (C57BL/6); conditions: 10 mg/kg intravenous 1 hour after infection; blood 40 minutes after injection; compared with LL-37, magainin 2, daptomycin
Method: Specifically, Staphylococcus aureus, Pseudomonas aeruginosa, methicillin-resistant Staphylococcus aureus and multidrug-resistant Pseudomonas aeruginosa was cultured in 3% (w/v) TSB liquid medium at 37° C. and 200 rpm for 4 hours, and then further cultured under the same conditions for 3 hours to a concentration of 5×10^9 CFU/ml. Strain solutions were prepared by diluting each of the further cultured strains with PBS solution to a final concentration of 1×10^5 CFU/μl.
Next, 100 μl of each strain solution was injected intravenously (IV) into the tail vein of each of 10-week-old male mice (C57BL/6). After one hour, KU-5878 was intravenously injected at a concentration of 10 mg/kg. As a control, PBS was intravenously injected at a concentration of 10 mg/kg, and as a positive control, LL-37, magainin 2, or daptomycin was intravenously injected at a concentration of 10 mg/kg.
40 minutes after the intravenous injection of each drug, about 1 cm from the tail end of each mouse was cut using surgical scissors, and 10 μl of the blood at the end of the cut was collected and diluted in PBS. The diluted blood sample was plated on a previously prepared TSB agar plate and incubated in an incubator at 37° C. for 18 hours, and the formed colonies were counted for comparison.

Sequence KTMMQSGGTFGTFMAIGMGIR [KU-5878] has an MBC Staphylococcus aureus [1] of 100 µg/mL, an MBC Pseudomonas aeruginosa [2] of 100 µg/mL and an MBC CRPA (CRPA) of 110 µg/mL. The “number of bacteria remaining in the blood vessels of the mice” value [3] was “most greatly decreased”.
